From patent US20230127839A1, “COMPOUNDS AND COMPOSITIONS FOR TREATING CONDITIONS ASSOCIATED WITH STING ACTIVITY” (IFM Due, Inc., priority 2019, published 2023)

Target: T1, hSTING (Homo sapiens, UniProt Q86WV6, G230A/H232R/R293Q/R71H)
T1 construct: host or cells: THP1-Dual KO-IFNAR2 cells
Assay: STING reporter assay (luciferase) in THP1-Dual KO-IFNAR2 cells stimulated with 2'3'cGAMP
Format: cell-based
Conditions: 2'3'cGAMP 15 μM, 24 h, luciferase reporter activity
Method: STING pathway activation by the compounds described herein is measured using THP1-Dual™ cells (KO-IFNAR2).
THP1-Dual™ KO-IFNAR2 Cells (obtained from invivogen) are maintained in RPMI, 10% FCS, 5 ml P/S, 2 mM L-glut, 10 mM Hepes, and 1 mM sodium pyruvate.
Compounds are spotted in empty 384 well tissue culture plates (Greiner 781182) by Echo for a final concentration of 0.0017-100 μM. Cells are plated into the TC plates at 40 μL per well, 2×10E6 cells/mL. For activation with STING ligand, 2′3′cGAMP (MW 718.38, obtained from Invivogen), is prepared in Optimem media.
The following solutions are prepared for each 1×384 plate: • Solution A: 2 mL Optimem with one of the following stimuli: • 60 uL of 10 mM 2′3′cGAMP->150 μM stock • Solution B: 2 mL Optimem with 60 μL Lipofectamine 2000->Incubate 5 min at RT
2 mL of solution A and 2 ml Solution B is mixed and incubated for 20 min at room temperature (RT). 20 uL of transfection solution (A+B) is added on top of the plated cells, with a final 2′3′cGAMP concentration of 15 μM. The plates are then centrifuged immediately at 340 g for 1 minute, after which they are incubated at 37° C., 5% CO2, >98% humidity for 24 h. Luciferase reporter activity is then measured. EC50 values are calculated by using standard methods known in the art.
Luciferase reporter assay: 10 μL of supernatant from the assay is transferred to white 384-plate with flat bottom and squared wells. One pouch of QUANTI-Luc™ Plus us dissolved in 25 mL of water. 100 μL of QLC Stabilizer per 25 mL of QUANTI-Luc™ Plus solution is added. 50 μL of QUANTI-Luc™ Plus/QLC solution per well is then added. Luminescence is measured on a Platereader (e.g., Spectramax I3X (Molecular Devices GF3637001)).
Luciferase reporter activity is then measured. EC50 values are calculated by using standard methods known in the art.

T1 sequence (Q86WV6 whole entry R71H/G230A/H232R/R293Q): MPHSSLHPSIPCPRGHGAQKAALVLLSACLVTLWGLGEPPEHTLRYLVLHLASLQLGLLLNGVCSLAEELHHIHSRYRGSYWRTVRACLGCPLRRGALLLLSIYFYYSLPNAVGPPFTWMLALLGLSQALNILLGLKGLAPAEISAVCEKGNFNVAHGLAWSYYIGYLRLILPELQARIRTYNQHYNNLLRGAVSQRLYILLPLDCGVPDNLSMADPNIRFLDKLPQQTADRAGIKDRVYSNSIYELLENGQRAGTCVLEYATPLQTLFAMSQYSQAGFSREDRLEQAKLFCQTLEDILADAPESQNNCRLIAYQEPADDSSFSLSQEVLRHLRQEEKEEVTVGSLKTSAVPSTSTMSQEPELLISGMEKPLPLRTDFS

| Structure (SMILES) | EC50 [nM] |
| --- | --- |
| O=C(Nc1cnc(C2CC(F)(F)C2)c(Cl)c1)Nc1c[nH]c2cc(F)c(F)cc12 [Compound 173, 1-(5-chloro-6-(3,3-difluorocyclobutyl)pyridin-3-yl)-3-(5,6-difluoro-1H-indol-3-yl)urea] | 200 to 1000 |
| O=C(Nc1cnc(N2CCC3(CCCCO3)CC2)c(Cl)c1)Nc1c[nH]c2cc(F)c(F)cc12 [Compound 176, 1-(5-chloro-6-(1-oxa-9-azaspiro[5.5]undecan-9-yl)pyridin-3-yl)-3-(5,6-difluoro-1H-indol-3-yl)urea] | 200 to 1000 |
| O=C(Nc1cnc(N2CCC(F)(F)CC2)nc1)Nc1c[nH]c2ccccc12 [Compound 178, 1-(2-(4,4-difluoropiperidin-1-yl)pyrimidin-5-yl)-3-(1H-indol-3-yl)urea] | 1000 to 5000 |
| N#Cc1ccc2[nH]cc(NC(=O)Nc3cnc(N4CCC(F)(F)CC4)c(Cl)c3)c2c1 [Compound 181, 1-(5-chloro-6-(4,4-difluoropiperidin-1-yl)pyridin-3-yl)-3-(5-cyano-1H-indol-3-yl)urea] | 40 to 200 |
| CSc1ccc2[nH]cc(NC(=O)Nc3cnc(N4CCC(F)(F)CC4)c(Cl)c3)c2c1 [Compound 183, 1-(5-chloro-6-(4,4-difluoropiperidin-1-yl)pyridin-3-yl)-3-(5-(methylthio)-1H-indol-3-yl)urea] | 40 to 200 |
| Cc1cc(NC(=O)Nc2c[nH]c3ccc(Br)cc23)cnc1N1CCC(F)(F)CC1 [Compound 184, 1-(5-bromo-1H-indol-3-yl)-3-(6-(4,4-difluoropiperidin-1-yl)-5-methylpyridin-3-yl)urea] | 40 to 200 |
| COCCO[C@@H]1CCN(c2ncc(NC(=O)Nc3c[nH]c4cc(F)c(F)cc34)cc2Cl)C1 [Compound 185, (R)-1-(5-chloro-6-(3-(2-methoxyethoxy)pyrrolidin-1-yl)pyridin-3-yl)-3-(5,6-difluoro-1H-indol-3-yl)urea] | 200 to 1000 |
| O=C(Nc1cnc(N2CC3(CCOC3)C2)c(Cl)c1)Nc1c[nH]c2cc(F)c(F)cc12 [Compound 186, 1-(5-chloro-6-(6-oxa-2-azaspiro[3.4]octan-2-yl)pyridin-3-yl)-3-(5,6-difluoro-1H-indol-3-yl)urea] | 200 to 1000 |
| O=C(Nc1ccc(C2CCC(F)(F)CC2)nc1)Nc1c[nH]c2ccccc12 [Compound 190, 1-(6-(4,4-difluorocyclohexyl)pyridin-3-yl)-3-(1H-indol-3-yl)urea] | 200 to 1000 |
| O=C(Nc1cnc(N2CCC(F)(F)CC2)c(Cl)c1)Nc1c[nH]c2ccc(Cl)cc12 [Compound 196, 1-(5-chloro-1H-indol-3-yl)-3-(5-chloro-6-(4,4-difluoropiperidin-1-yl)pyridin-3-yl)urea] | 40 to 200 |
| Cc1cc(NC(=O)Nc2c[nH]c3ccccc23)cnc1N1CCC2(CC1)CC2 [Compound 198, 1-(1H-indol-3-yl)-3-(5-methyl-6-(6-azaspiro[2.5]octan-6-yl)pyridin-3-yl)urea] | 40 to 200 |
| Cc1cc(NC(=O)Nc2c[nH]c3cc(F)c(F)cc23)cnc1N1CCC(F)(F)CC1 [Compound 200, 1-(5,6-difluoro-1H-indol-3-yl)-3-(6-(4,4-difluoropiperidin-1-yl)-5-methylpyridin-3-yl)urea] | 40 to 200 |
| COC1CCN(c2ncc(NC(=O)Nc3c[nH]c4ccccc34)cc2C)CC1 [Compound 202, 1-(1H-indol-3-yl)-3-(6-(4-methoxypiperidin-1-yl)-5-methylpyridin-3-yl)urea] | 1000 to 5000 |
| O=C(Nc1ccc(N2CCC(F)(F)CC2)nn1)Nc1c[nH]c2ccccc12 [Compound 204, 1-(6-(4,4-difluoropiperidin-1-yl)pyridazin-3-yl)-3-(1H-indol-3-yl)urea] | 1000 to 5000 |

Further lines, results first:

| EC50 [nM] | Structure (SMILES) |
| --- | --- |
| 40 to 200 | O=C(Nc1cnc(N2CCC(F)(F)CC2)c(Cl)c1)Nc1c[nH]c2cc(F)c(Cl)cc12 [Compound 170, 1-(5-chloro-6-(4.4-difluoropiperidin-1-yl)pyridin-3-yl)-3-(5-chloro-6-fluoro-1H-indol-3-yl)urea] |
| 5000 to 100000 | CS(=O)(=O)c1ccc2[nH]cc(NC(=O)Nc3cnc(N4CCC(F)(F)CC4)c(Cl)c3)c2c1 [Compound 171, 1-(5-chloro-6-(4,4-difluoropiperidin-1-yl)pyridin-3-yl)-3-(5-(methylsulfonyl)-1H-indol-3-yl)urea] |
| 200 to 1000 | C#CCC1CCN(c2ccc(NC(=O)Nc3c[nH]c4ccccc34)cn2)CC1 [Compound 172, 1-(1H-indol-3-yl)-3-(6-(4-(prop-2-yn-1-yl)piperidin-1-yl)pyridin-3-yl)urea] |
| 40 to 200 | O=C(Nc1cnc(N2CCC(F)(F)CC2)c(Cl)n1)Nc1c[nH]c2ccc(Cl)cc12 [Compound 174, 1-(5-chloro-1H-indol-3-yl)-3-(6-chloro-5-(4,4-difluoropiperidin-1-yl)pyrazin-2-yl)urea] |
| 200 to 1000 | Cc1nc(NC(=O)Nc2c[nH]c3cc(F)c(F)cc23)cnc1N1CCC(F)(F)CC1 [Compound 175, 1-(5,6-difluoro-1H-indol-3-yl)-3-(5-(4,4-difluoropiperidin-1-yl)-6-methylpyrazin-2-yl)urea] |
| 40 to 200 | COCCC1CCN(c2ncc(NC(=O)Nc3c[nH]c4cc(F)c(F)cc34)cc2Cl)CC1 [Compound 177, 1-(5-chloro-6-(4-(2-methoxyethyl)piperidin-1-yl)pyridin-3-yl)-3-(5,6-difluoro-1H-indol-3-yl)urea] |
| 200 to 1000 | O=C(Nc1cnc(N2CCC(F)(F)CC2)nc1)Nc1c[nH]c2cc(F)c(F)cc12 [Compound 179, 1-(5,6-difluoro-1H-indol-3-yl)-3-(2-(4,4-difluoropiperidin-1-yl)pyrimidin-5-yl)urea] |
| 40 to 200 | O=C(Nc1cnc(N2CCC(F)(F)CC2)nc1)Nc1c[nH]c2ccc(Cl)cc12 [Compound 180, 1-(5-chloro-1H-indol-3-yl)-3-(2-(4,4-difluoropiperidin-1-yl)pyrimidin-5-yl)urea] |
| 200 to 1000 | COC1(C)CN(c2ncc(NC(=O)Nc3c[nH]c4cc(F)c(F)cc34)cc2Cl)C1 [Compound 187, 1-(5-chloro-6-(3-methoxy-3-methylazetidin-1-yl)pyridin-3-yl)-3-(5,6-difluoro-1H-indol-3-yl)urea] |
| 200 to 1000 | C[C@H]1CN(c2ncc(NC(=O)Nc3c[nH]c4cc(F)c(F)cc34)cc2Cl)CCO1 [Compound 188, (S)-1-(5-chloro-6-(2-methylmorpholino)pyridin-3-yl)-3-(5,6-difluoro-1H-indol-3-yl)urea] |
| 40 to 200 | O=C(Nc1cnc(N2CCC(F)(F)CC2)cn1)Nc1c[nH]c2ccc(Cl)cc12 [Compound 189, 1-(5-chloro-1H-indol-3-yl)-3-(5-(4,4-difluoropiperidin-1-yl)pyrazin-2-yl)urea] |
| 200 to 1000 | O=C(Nc1cnc(C2CCC(F)(F)CC2)c(Cl)c1)Nc1c[nH]c2ccc(O)cc12 [Compound 191, 1-(5-chloro-6-(4,4-difluorocyclohexyl)pyridin-3-yl)-3-(5-hydroxy-1H-indol-3-yl)urea] |
| 40 to 200 | O=C(Nc1ccc(C2CCC(F)(F)CC2)nc1)Nc1c[nH]c2ccc(I)cc12 [Compound 192, 1-(6-(4,4-difluorocyclohexyl)pyridin-3-yl)-3-(5-iodo-1H-indol-3-yl)urea] |
| 40 to 200 | O=C(Nc1cnc(N2CCC(F)(F)CC2)c(Cl)c1)Nc1c[nH]c2ccc(F)cc12 [Compound 193, 1-(5-chloro-6-(4,4-difluoropiperidin-1-yl)pyridin-3-yl)-3-(5-fluoro-1H-indol-3-yl)urea] |
| 200 to 1000 | O=C(Nc1cnc(N2CCC(F)(F)CC2)cn1)Nc1c[nH]c2cc(F)c(F)cc12 [Compound 194, 1-(5,6-difluoro-1H-indol-3-yl)-3-(5-(4,4-difluoropiperidin-1-yl)pyrazin-2-yl)urea] |
| 40 to 200 | Cc1cc(NC(=O)Nc2c[nH]c3ccc(F)cc23)cnc1N1CCC(F)(F)CC1 [Compound 195, 1-(6-(4,4-difluoropiperidin-1-yl)-5-methylpyridin-3-yl)-3-(5-fluoro-1H-indol-3-yl)urea] |
| 40 to 200 | Cc1ccc2[nH]cc(NC(=O)Nc3cnc(N4CCC(F)(F)CC4)c(C)c3)c2c1 [Compound 197, 1-(6-(4,4-difluoropiperidin-1-yl)-5-methylpyridin-3-yl)-3-(5-methyl-1H-indol-3-yl)urea] |
| 40 to 200 | O=C(Nc1cnc(N2CCC(F)(F)CC2)c(Cl)c1)Nc1c[nH]c2cc(F)c(F)cc12 [Compound 199, 1-(5-chloro-6-(4,4-difluoropiperidin-1-yl)pyridin-3-yl)-3-(5,6-difluoro-1H-indol-3-yl)urea] |
| 200 to 1000 | Cc1cc(NC(=O)Nc2c[nH]c3ccccc23)cnc1N1CCC(F)(F)CC1 [Compound 201, 1-(6-(4,4-difluoropiperidin-1-yl)-5-methylpyridin-3-yl)-3-(1H-indol-3-yl)urea] |
| 40 to 200 | O=C(Nc1ccc(C2CCC(F)(F)CC2)nc1)Nc1c[nH]c2ccc(Br)cc12 [Compound 203, 1-(5-bromo-1H-indol-3-yl)-3-(6-(4,4-difluorocyclohexyl)pyridin-3-yl)urea] |
